For assay [1], the target named is Muscarinic acetylcholine receptors; M2 & M3 (Homo sapiens) (UniProt P20309+P08172). The assay can be described thus: Selectivity ratio of IC50 for human muscarinic M2 receptor to IC50 for human muscarinic M3 receptor.
Assay [2] concerns Cavia porcellus. The assay can be described thus: Inhibition of acetylcholine-induced bronchospasm in anesthetized Dunkin-Hartley guinea pig assessed as time required to recover 50% of maximum inhibitory effect at 3 mg/ml administered via nebulizer. Type of assay: functional.
Assay [3] addresses Muscarinic acetylcholine receptor M1 and M3 (Homo sapiens) (UniProt P20309+P11229). The assay can be described thus: Selectivity ratio of IC50 for human muscarinic M1 receptor to IC50 for human muscarinic M3 receptor.
The target in assay [4] is Muscarinic acetylcholine receptor M3 (Homo sapiens, UniProt P20309). The assay can be described thus: Displacement of [3H]NMS from human muscarinic M3 receptor expressed in CHO-K1 cells after 1 hr by scintillation counting. It counts as cell-based. In general terms: Loss of bound radioactivity is the signal in a displacement assay; it reports binding, not function.
Assay [5] has as its target T1, Muscarinic acetylcholine receptor M1 (Homo sapiens, UniProt P11229).
T1 sequence (P11229 whole entry): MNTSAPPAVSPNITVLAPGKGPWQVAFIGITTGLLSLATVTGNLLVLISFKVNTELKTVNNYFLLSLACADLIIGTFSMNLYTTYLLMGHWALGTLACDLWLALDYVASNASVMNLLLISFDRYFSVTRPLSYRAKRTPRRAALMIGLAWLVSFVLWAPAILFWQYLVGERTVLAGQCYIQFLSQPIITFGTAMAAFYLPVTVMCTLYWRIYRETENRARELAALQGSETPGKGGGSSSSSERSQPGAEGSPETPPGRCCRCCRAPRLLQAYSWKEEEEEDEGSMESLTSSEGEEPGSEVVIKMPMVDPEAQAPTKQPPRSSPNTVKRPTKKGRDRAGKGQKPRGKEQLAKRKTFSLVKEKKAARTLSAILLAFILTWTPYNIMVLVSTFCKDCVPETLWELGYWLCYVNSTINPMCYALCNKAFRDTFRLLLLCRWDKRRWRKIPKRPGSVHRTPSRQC
The assay can be described thus: Displacement of [3H]NMS from human muscarinic M1 receptor expressed in CHO-K1 cells after 1 hr by scintillation counting. Type of assay: cell-based.

The target of assay [6] is T2, Muscarinic acetylcholine receptor M2 (Homo sapiens, UniProt P08172).
T2 sequence (P08172 whole entry): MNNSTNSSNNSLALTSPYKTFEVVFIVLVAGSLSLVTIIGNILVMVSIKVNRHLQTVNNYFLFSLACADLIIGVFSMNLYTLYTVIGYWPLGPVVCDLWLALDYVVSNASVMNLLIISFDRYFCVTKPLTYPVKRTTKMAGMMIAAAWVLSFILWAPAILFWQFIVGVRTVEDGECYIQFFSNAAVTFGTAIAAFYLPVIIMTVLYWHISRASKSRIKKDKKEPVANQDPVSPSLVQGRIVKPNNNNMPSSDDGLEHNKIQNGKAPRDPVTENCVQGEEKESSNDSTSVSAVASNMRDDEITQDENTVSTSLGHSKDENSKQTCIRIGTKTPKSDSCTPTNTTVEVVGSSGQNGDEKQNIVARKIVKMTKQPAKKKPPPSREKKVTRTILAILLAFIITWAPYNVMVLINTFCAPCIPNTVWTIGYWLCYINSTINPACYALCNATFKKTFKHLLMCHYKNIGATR
The assay can be described thus: Displacement of [3H]NMS from human muscarinic M2 receptor expressed in CHO-K1 cells after 1 hr by scintillation counting. It counts as cell-based.

Assay [7] concerns Cavia porcellus. The assay can be described thus: Inhibition of acetylcholine-induced bronchospasm in anesthetized Dunkin-Hartley guinea pig assessed as time required to recover 50% of maximum inhibitory effect at 1 mg/ml administered via nebulizer. It counts as functional.

pIC50: −log10 of the molar value. A value given as a limit tells only on which side of the number the result lay.

Chain of Muscarinic acetylcholine receptors; M2 & M3 (Homo sapiens) (P20309 whole entry, looked up, one chain of several): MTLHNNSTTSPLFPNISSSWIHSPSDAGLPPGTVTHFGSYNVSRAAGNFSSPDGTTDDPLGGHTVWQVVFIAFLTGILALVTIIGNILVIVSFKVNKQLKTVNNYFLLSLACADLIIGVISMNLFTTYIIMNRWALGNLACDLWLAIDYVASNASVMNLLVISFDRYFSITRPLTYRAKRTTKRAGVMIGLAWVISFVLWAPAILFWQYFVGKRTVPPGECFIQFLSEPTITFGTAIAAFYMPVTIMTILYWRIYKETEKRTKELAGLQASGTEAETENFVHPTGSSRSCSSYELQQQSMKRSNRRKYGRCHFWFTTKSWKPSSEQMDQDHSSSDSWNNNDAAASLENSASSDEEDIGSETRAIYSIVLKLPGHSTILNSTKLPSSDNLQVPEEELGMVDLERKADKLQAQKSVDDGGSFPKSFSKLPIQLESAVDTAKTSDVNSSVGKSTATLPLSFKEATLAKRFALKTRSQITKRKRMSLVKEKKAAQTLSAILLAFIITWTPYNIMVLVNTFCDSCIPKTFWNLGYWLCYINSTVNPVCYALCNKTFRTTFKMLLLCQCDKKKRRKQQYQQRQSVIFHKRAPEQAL
Chain of Muscarinic acetylcholine receptor M3 (P20309 whole entry): as the sequence (P20309 whole entry, looked up, one chain of several) above
Chain of Muscarinic acetylcholine receptor M1 and M3 (Homo sapiens) (P20309 whole entry, looked up, one chain of several): as above

One may read the pIC50 as −log10 of the IC50, conventionally taken in molar units. `O=C(O[C@H]1CN2CCC1CC2)N(Cc1ccccc1)c1ccccc1`: the results for the Ratio IC50 in assay [1] and in assay [3] were 3.1 and 0.3, respectively. For the same compound, the Time in the assay with Cavia porcellus [2] amounted to 1.5 h. Besides, the figures for the pIC50 in assay [4], in assay [5] and in assay [6] were 8.92, 9.40 and 8.43, respectively.

As for `CCCCN(C(=O)O[C@H]1C[N+]2(CCCc3cccs3)CCC1CC2)c1ccccc1.[Br-]`, the Ratio IC50 was found to be 18.2 in assay [1] and 3.3 in assay [3]. In addition, the Time in the assay on Cavia porcellus [7] is more than 6 h. Besides, the figures for the pIC50 in assay [4], in assay [5] and in assay [6] were 9.22, 8.70 and 7.96, respectively.

On to `O=C(O[C@H]1C[N+]2(CCOc3ccccc3)CCC1CC2)N(Cc1ccsc1)c1ccccc1.[Br-]`, for which the Ratio IC50 was found to be 8 in assay [1] and 2 in assay [3]. Also, the Time in the assay on Cavia porcellus [7] is more than 6 h. Also, the pIC50 in assay [4] is 9.70; in assay [5], 9.40; in assay [6], 8.80.

In the case of `CCCCN(C(=O)O[C@H]1C[N+]2(CCOc3ccccc3)CCC1CC2)c1ccccc1.[Br-]`, the Ratio IC50 in assay [1] is 11.1; in assay [3], 1.7. Besides, the Time in the assay with Cavia porcellus [7] was more than 6 h. The pIC50 is 9.10 in assay [4], 8.85 in assay [5] and 8.05 in assay [6].

Turning to `O=C(O[C@H]1C[N+]2(CCCc3cccs3)CCC1CC2)N(Cc1cccs1)c1ccccc1.[Br-]`, the results for the Ratio IC50 in assay [1] and in assay [3] were 6.4 and 3.2, respectively. The Time in the assay with Cavia porcellus [7] was more than 6 h. The pIC50 was 9.30 in assay [4], 8.80 in assay [5] and 8.49 in assay [6].

With `O=C(O[C@H]1CN2CCC1CC2)N(Cc1cccs1)c1ccccc1`, the Ratio IC50 was 3 in assay [1] and 0.7 in assay [3]. Also, in the assay with Cavia porcellus [7], the Time was less than 4 h. The pIC50 in assay [4] is 9.22; in assay [5] it was 9.40; in assay [6], 8.74.

As for `O=C(O[C@H]1C[N+]2(CCOc3ccccc3)CCC1CC2)N(Cc1cccs1)c1ccccc1.[Br-]`, the Ratio IC50 amounted to 3.7 in assay [1] and 1.3 in assay [3]. In addition, in the assay with Cavia porcellus [7], the Time was more than 6 h. In addition, the pIC50 was 9.52 in assay [4], 9.40 in assay [5] and 8.96 in assay [6].
